≈ marks a conversion by molar mass, not a printed value. Where “and” joins values, the source holds several entries; their conditions need not be identical. Identical values can stand only once. Counter-ions that a name gives are not always drawn. Like-named read-outs stand apart in the source and are kept apart here.
Key:
[1] = system: Mycobacterium tuberculosis H37Rv; test: Minimum inhibitory concentration (MIC90) against Mycobacterium tuberculosis H37Rv, Middlebrook 7H9, 96-well plate, 15 days; format: cell-based; conditions: Mycobacterium tuberculosis H37Rv, 15 days of incubation, 90% inhibition of growth, visual reading
[2] = Pharmacokinetics and lung tissue distribution in mice, LC-MS/MS; format: in vivo, Balb/C mice; conditions: 100 mg/kg
Experimental: In this example, the pharmacokinetic parameters and lung tissue distribution of the deuterated compounds YF027, YF032, YF036, and YF044 and their respective non-deuterated control compounds (A, B, C, and D) were determined.
Balb/C mice, male (1 group at each time point, 5 mice per group, 55 mice per compound in total), 7-8 weeks old, weighing about 20 g, animal source: Beijing Vital River Laboratory Animal Technology Co., Ltd.
The test compound was completely dissolved in an 8% Tween-80 aqueous solution. A 10 mg/mL drug liquid was prepared for intraperitoneal injection and intragastric administration.
Single intragastric administration was performed at a dose of 100 mg/kg. The pharmacokinetic differences between the deuterated compounds YF027, YF032, YF036, and YF044 and their respective non-deuterated controls A, B, C, and D were compared.
The mice were fasted overnight before administration. In the experiment, orbital venous blood and lung tissue were collected from the mice at time points of no administration group (0 min) and 10 min, 20 min, 30 min, 1 h, 2 h, 3 h, 4 h, 6 h, 8 h, and 24 h after intragastric administration, and about 300 µL of blood was collected from the eyeballs each time.
The collected blood sample was placed in an anticoagulation tube, and quickly inverted and mixed well. The tube was temporarily placed on ice after being labeled. The blood samples temporarily stored on ice were subjected to low-temperature centrifugation within 1 h at 4 °C at 3000 rpm for 10 min. The supernatant obtained after centrifugation was plasma. The plasma was transferred to a new centrifuge tube and stored in a refrigerator at -80 °C for subsequent detection.
The lung tissues of the mice were collected, washed with pre-cooled normal saline to remove the residual blood and tissue fluid, dried with absorbent paper, weighed with a balance, and placed into a centrifuge tube. The tubes were marked and stored in a refrigerator at -80 °C.
The concentrations of the compounds of the present disclosure and control compounds in plasma and lung tissue were determined using LC-MS/MS. Table 2. Pharmacokinetic parameters of compound YF027 of the present disclosure and control compound A

[3] = system: Mycobacterium tuberculosis H37Rv; format: in vivo, BALB/c mice
[4] = Balb/C mice, single intragastric administration, plasma
[5] = Balb/C mice, single intragastric administration, plasma, 1440 min
[6] = Mycobacterium tuberculosis, H37RV, 360 h

| Compound | MIC90 [1] [µg/mL] | CL ([2]; mouse, in vivo, po) [mL/min/kg] | Cmax ([2]; mouse, in vivo, po) | Tmax ([2]; mouse, in vivo, po) [h] | MIC90 ([1]; 360 h, read-out: MIC90) [µg/mL] | AUC(0-inf) ([2]; mouse, in vivo, po) [ng·h/mL] | AUC(0-t) at 24 h ([2]; mouse, in vivo, po) [ng·h/mL] | half-life ([2]; mouse, in vivo, po) [h] | further results |
| --- | --- | --- | --- | --- | --- | --- | --- | --- | --- |
| 3,9-Dihydroxy-8-((4-(1-hydroxybutyl-1-d)piperidin-2,2,6,6-d4-1-yl)methyl)benzo[5,6]oxepino[4,3-b]benzofuran-7(5H)-one hydrochloride [YF044] | 0.0078 | 150 | 4041.90 ng/mL | 0.50 | – | – | – | – | AUC0-∞ ([2]; mouse, in vivo, po): 111067.0 ng·h/mL; Lung tissue distribution Cmax ([2]; mouse, in vivo, po): 43437.42 ng/g; t1/2 ([2]; mouse, in vivo, po): 2.03 h; AUC0-t ([2]; mouse, in vivo, po, 24 h): 11104.68 ng·h/mL |
| 8-((4-(3-Chlorophenyl)piperidin-1-yl-2,2,6,6-d4)methyl-d2)-3,9-dihydroxybenzo[5,6]oxepino[4,3-b]benzofuran-7(5H)-one hydrochloride [YF032] | 0.0625 | – | – | – | – | – | – | – | AUC0-∞ [2, 4]: 14032.28 ng·h/mL; CL [2, 4]: 119 mL/min/kg; Cmax [2, 4]: 4332.29 ng/mL; Tmax [2, 4]: 1.00 h; t1/2 [2, 4]: 1.85 h; AUC0-t [2, 5]: 14030.17 ng·h/mL; reduction in bacterial load ([3]; mouse, in vivo): 0.81 log |
| 8-((4-Butanoylpiperidin-1-yl-2,2,6,6-d4)-methyl-d2)-3,9-dihydroxybenzo[5,6]oxepino[4,3-b]benzofuran-7(5H)-one hydrochloride [YF036] | 0.03125 | – | – | – | – | – | – | – | AUC0-∞ [2, 4]: 5883.88 ng·h/mL; CL [2, 4]: 283.3 mL/min/kg; Cmax [2, 4]: 2084.39 ng/mL; Tmax [2, 4]: 0.33 h; t1/2 [2, 4]: 4.75 h; AUC0-t [2, 5]: 5655.66 ng·h/mL; reduction of pulmonary bacterial load ([3]; mouse, in vivo): 1.87 log |
| O=C1OCc2cc(O)ccc2-c2oc3ccc(O)c(CN4CCC(c5cccc(Cl)c5)CC4)c3c21 [Compound B] | – | 161 | 3570 ng/mL and 23400 ng/g | 1 | 0.125 (≈ 0.255 µM) | 10400 | 10300 | 1.74 | bacteriostatic activity in mice ([3]; 4 weeks intragastrically, Table 11 prints 50 mg/kg, text implies twice the dose of YF032): no bacteriostatic activity |
| CCCC(=O)C1CCN(Cc2c(O)ccc3oc4c(c23)C(=O)OCc2cc(O)ccc2-4)CC1 [Compound C] | – | 307.2 | 944 ng/mL and 5420 ng/g | 0.5 | 0.0625 (≈ 0.139 µM) | 5430 | 4960 | 7.12 | reduction of pulmonary bacterial load ([3]; mouse, in vivo): 1.99 log |
| CCCC(O)C1CCN(Cc2c(O)ccc3oc4c(c23)C(=O)OCc2cc(O)ccc2-4)CC1 (stereo not drawn) [Compound D] | – | 371.3 | 2110 ng/mL and 13500 ng/g | – | 0.0156 (≈ 0.0346 µM) | 4500 | 4470 | 2.86 | – |
| [2H]c1c(O)c(C([2H])([2H])N2CCC([2H])(C(O)C([2H])([2H])CC)CC2)c2c3c(oc2c1[2H])-c1ccc(O)cc1C([2H])([2H])OC3=O (stereo not drawn) [YF047, 3,9-Dihydroxy-8-((4-(1-hydroxybutyl-2,2-d2)piperidin-1-yl-1-d)methyl-d2)benzo[5,6]oxepino[4,3-b]benzofuran-7(5H)-one-5,5,10,11-d4 hydrochloride] | – | – | – | – | – | – | – | – | MIC90 [1, 6]: 0.0156 µg/mL |
| [2H]c1c(O)c(C([2H])([2H])N2CCC([2H])(C([2H])(O)C([2H])([2H])CC)CC2)c2c3c(oc2c1[2H])-c1ccc(O)cc1C([2H])([2H])OC3=O (stereo not drawn) [YF048, 3,9-Dihydroxy-8-((4-(1-hydroxybutyl-1,2,2-d3)piperidin-1-yl-1-d)methyl-d2)benzo[5,6]oxepino[4,3-b]benzofuran-7(5H)-one-5,5,10,11-d4 hydrochloride] | – | – | – | – | – | – | – | – | MIC90 [1, 6]: 0.0156 µg/mL |
